Experimental data from patent US10137122B2, “Kinase inhibitors and methods of use thereof” (priority 2012, dated 2018).
pEC50: −log10 of the molar value. Where two headings read alike, the source gives them in different places.

Legend:
[1] = test system: TCF/LEF reporter in HEK293-pBARL cells; assay: cells; conditions: Homo sapiens
Protocol: HEK293-pBARL cells were derived from HEK293 cells and they stably expressed a firefly-luciferase reporter gene driven by a promoter containing 12 copies of TCF/LEF binding sequences. These cells were maintained in DMEM and supplemented with 10% FBS and 1% penicillin-streptomycin (Invitrogen). Reporter gene assays were conducted in anti-biotic free media. […] These cells also contained a renilla-luciferase reporter gene driven by the ubiquitous EF1α promoter as a control. HEK293-pBarl reporter cell lines were seeded into 384-well culture plates (Corning) at 6000 cells/well. 24 hours after plating, cells were treated overnight with relevant compounds and assayed using DualGlo assay kit (Promega). Luminescent intensities were read by EnVision (PerkinElmer, Waltham, Mass.). Firefly luciferase intensity is normalized by renilla luciferase intensity.
Cells were cultured in 384 well plates to appropriate density (40 μl total plating volume). 24 hours after plating, cells were treated with 100 nl compounds. 24 hours after incubation with compounds (48 hours after plating), assay reagents were prepared by mixing Luciferase Assay solution with Luciferase substrate and Stop & Glo solution to Stop & Glo substrate (extra reagents can be aliquoted and frozen for future use and are stable for at least one freeze/thaw cycle). […] The plate was spun down and 10 minutes were allowed for signal stabilization. Luciferase signal on the Perkin Elmer EnVision using the following parameters: Distance between plate & detector (mm)=0.2; Measurement time(s)=0.1; Glow (CT2) correction factor=0. Once the initial data is secure, a volume of Stop & Glo was added equal to each well equal to the volume of Luciferase reagent added above (If 10 μl Luciferase Reagent was added, 10 μl Stop & Glo was also added). The plate was spun down and 10 minutes were allowed for signal stabilization. The plate was read on the EnVision using the same parameters detailed above.

[2] = test system: phospho-Tau (Ser199) in SH-SY5Y cells; assay: Tau phosphorylation assay (phospho-Tau Ser199 ELISA); format: cell-based, human; conditions: Homo sapiens, SH-SY5Y, read-out: p-Tau Inhibition ELISA EC50 SH-SY5Y
Protocol: Tau Phosphorylation and Total Tau Assay
SH-SY5Y cells were maintained in DMEM supplemented with 10% heat-inactivated FBS and 1% penicillin-streptomycin (Invitrogen) unless otherwise stated. ELISA kits for phospho-Tau (Ser199) and total Tau detection were purchased from Invitrogen (KHB0041, and KHB7041 respectively). Briefly, SH-SY5Y cells were seeded at 50,000 cells/200 μL/well in 96 well plates and after overnight incubation, treated with various doses of chemical compounds at 0.2 μL/well. The next day cells were washed with PBS twice before being lysed in 100 μL Lysis buffer/well. 50 μL of cell lysate of each sample was transferred to an ELISA vial coated with the capture antibody, and the mixture was incubated at room temperature for 2 hours, before the supernatant was aspired, and each vial washed four times. 100 μL of detection antibody was then added to each well, incubated for 1 hour, and then washed four times. […] Data were scaled using the positive and neutral controls and fitted for IC50.
A standard protocol using an immunoassay kit to quantify total Tau protein and phospho-Tau (Ser199) protein in SH-SY5Y human neuroblastoma cells was employed. Human Tau (Total) ELISA kit (#KHB0041) and human phosphor-Tau (Ser199) ELISA kit were purchased from Invitrogen (#KHB7041)
50,000 cells were seeded in 200 μl per well in cell culture media (250,000 cells/ml). Cells were incubated overnight @37° C. Cells were induced with appropriate doses of inhibitors and incubated for approximately 24 hrs @37° C. Cell lysates were harvested by washing cells once with cold PBS and adding 100 μl cold lysis buffer and pipette up and down vigorously. Lysate was transferred to 96 well PCR plate and centrifuged at 4,000 rpm for 20 minutes at 4° C.
Well strips were warmed and inserted into the frame. 100μ of standard diluent buffer were loaded into ZERO wells, and 100 ul of each standard concentrations (both total Tau and pTau) were loaded into wells in duplicate. Samples were loaded to each well that would be analyzed for total Tau, 85 μl standard diluent buffer and 15 μl cell lysate were added. To each well that will be analyzed for pTau (Ser199) 50 μl standard diluent buffer+50 μl cell lysate were added. Plates were tapped gently on the side to mix. Certain wells were left empty for chromogen blank. Plates were covered and incubated for 2 hours at room temperature. Wells were aspirated 4 times (400 μl diluted wash buffer, left for 30 seconds, aspirated all wells; alternatively used automated plate washer and programmed in a 30 second hold between each cycle). 100 μl of detection antibody solution were added to each well except chromogen blanks. Anti-total Tau was added to wells being analyzed for total Tau, anti-pTau (Ser199) was added to wells being analyzed for pTau (Ser199), and plates were tapped gently on the side to mix. Plates were covered and incubated for 1 hour at room temperature, then wells were aspirated and washed 4 times as described above. 100 μl of anti-rabbit IgG HRP working solution (prepared ahead) were added to each well except chromogen blanks, and plates were covered and incubated for 30 minutes at room temperature, then wells were aspirated and washed 4 times as described above. 100 μl of stabilized chromogen were added to each well (the liquid turned blue). Plates were incubates for 30 minutes at room temperature in the dark, then 100 μl of stop solution were added to each well, and plates were tapped gently on the side to mix. Absorbance of each well was read at 450 nm (within 2 hours of adding stop solution).

[3] = test system: β-catenin nuclear translocation in U2-OS cells; assay: β-Catenin nuclear localization assay; format: cell-based; conditions: Homo sapiens, U2OS, read-out: beta-Catenin translocation EC50
Protocol: β-Catenin Nuclear Localization Assay
U2-OS cells stably expressing two complimentary β-galactosidase fragments (one part on β-Catenin and the other constitutively expressed in the cell nucleus) were maintained in DMEM F12 supplemented with 10% FBS. When β-catenin translocates to the nucleus, the complimentary fragments form a complete β-galactosidase, the amount of which is then quantified by β-galactosidase activity (DiscoveRx). Cells were seeded in a 384-well CulturPlate (Perkin Elmer, Boston, Mass.) with 10,000 per well in 20 μL DMEM F12 containing 10% FCS, 100 U/ml penicillin and 100 μg/mL streptomycin. After overnight incubation at 37° C., cells were stimulated with 100 nL test compound/well and then returned to the incubator for 6 h. Cells were disrupted using 12 μL substrate-containing lysis buffer from the PathHunter Detection Kit in the formulation specified by the supplier (DiscoveRx). Plates were incubated in the dark for 1 h at room temperature before measurement of β-galactosidase activity (luminescence) on an EnVision plate reader (PerkinElmer, Waltham, Mass.).

[4] = HEK293, read-out: TCF/LEF EC50 (μM)
[5] = HEK293, read-out: TCF/LEF EC50 (μM), HEK293 reporter cells

Row | SMILES | EC50 [1, 4] [µM] | pEC50 [2] | other results
1 | Cc1[nH]nc2c1C(c1ccsc1)C1=C(CC(C)(C)CC1=O)N2 (centres unmarked) [Compound 8, 3,7,7-trimethyl-4-(thiophen-3-yl)-6,7,8,9-tetrahydro-1H-pyrazolo[3,4-b]quinolin-5(4H)-one] | > 25 |  | 
2 | COC(=O)c1[nH]nc2c1C(C)(c1ccccc1)C1=C(CC(C)(C)CC1=O)N2 (centres unmarked) [Compound 104] |  | 5.35 | 
3 | Cc1[nH]nc2c1[C@H](c1ccccc1Br)C1=C(CC(C)(C)CC1=O)N2 (racemic) [Compound 80, 4-(2-bromophenyl)-3,7,7-trimethyl-6,7,8,9-tetrahydro-2H-pyrazolo[3,4-b]quinolin-5(4H)-one] | 5.63 |  | 
4 | Cc1[nH]nc2c1C(c1ccccc1Cl)C1=C(CC(C)(C)CC1=O)N2 (centres unmarked) [Compound 13, 4-(2-chlorophenyl)-3,7,7-trimethyl-6,7,8,9-tetrahydro-2H-pyrazolo[3,4-b]quinolin-5(4H)-one] | 24 | 5.60 | pEC50 [3]: 4.39
5 | Cc1[nH]nc2c1C(c1ccc(Br)cn1)C1=C(CC(C)(C)CC1=O)N2 (centres unmarked) [Compound 39, 4-(5-bromopyridin-2-yl)-3,7,7-trimethyl-6,7,8,9-tetrahydro-1H-pyrazolo[3,4-b]quinolin-5(4H)-one] | > 25 |  | 
6 | Cc1[nH]nc2c1C(c1cccc(Cl)c1)C1=C(CC(C)(C)CC1=O)N2 (centres unmarked) [Compound 14, 4-(3-chlorophenyl)-3,7,7-trimethyl-6,7,8,9-tetrahydro-1H-pyrazolo[3,4-b]quinolin-5(4H)-one] | 31.3 |  | 
7 | Cc1[nH]nc2c1C(c1ccc(Cl)s1)C1=C(CC(C)(C)CC1=O)N2 (centres unmarked) [Compound 9, 4-(5-chlorothiophen-2-yl)-3,7,7-trimethyl-6,7,8,9-tetrahydro-1H-pyrazolo[3,4-b]quinolin-5(4H)-one] | > 25 |  | 
8 | COc1cccc(C2C3=C(CC(C)(C)CC3=O)Nc3n[nH]c(C)c32)c1 (centres unmarked) [Compound 23, 4-(3-methoxyphenyl)-3,7,7-trimethyl-6,7,8,9-tetrahydro-1H-pyrazolo[3,4-b]quinolin-5(4H)-one] | > 25 |  | 
9 | Cc1[nH]nc2c1C(c1cccs1)C1=C(CC(C)(C)CC1=O)N2 (racemic) [Compound 5, 3,7,7-trimethyl-4-(thiophen-2-yl)-6,7,8,9-tetrahydro-1H-pyrazolo[3,4-b]quinolin-5(4H)-one] | > 25 |  | 
10 | CC1(C)CC(=O)C2=C(C1)Nc1n[nH]c(Br)c1C2(C)c1ccccc1 (centres unmarked) [Compound 111] |  | 5.53 | 
11 | Cc1[nH]nc2c1C(c1ccncc1)C1=C(CC(C)(C)CC1=O)N2 (centres unmarked) [Compound 38, 3,7,7-trimethyl-4-(pyridin-4-yl)-6,7,8,9-tetrahydro-1H-pyrazolo[3,4-b]quinolin-5(4H)-one] |  |  | EC50 [1, 5]: > 25 µM
12 | Cc1cccc(C2C3=C(CC(C)(C)CC3=O)Nc3n[nH]c(C)c32)c1 (centres unmarked) [Compound 18, 3,7,7-trimethyl-4-(m-tolyl)-6,7,8,9-tetrahydro-2H-pyrazolo[3,4-b]quinolin-5(4H)-one] | > 25 |  | pEC50 [3]: < 4.30
13 | Cc1[nH]nc2c1C(c1cccnc1)C1=C(CC(C)(C)CC1=O)N2 (centres unmarked) [Compound 37, 3,7,7-trimethyl-4-(pyridin-3-yl)-6,7,8,9-tetrahydro-1H-pyrazolo[3,4-b]quinolin-5(4H)-one] | > 25 |  | 
14 | CC1(C)CC(=O)C2=C(C1)Nc1n[nH]c(Cl)c1C2(C)c1ccccc1 (centres unmarked) [Compound 110] |  | 5.34 | 
15 | Cc1[nH]nc2c1C(c1ccc(F)cc1)C1=C(CC(C)(C)CC1=O)N2 (centres unmarked) [Compound 12, 4-(4-fluorophenyl)-3,7,7-trimethyl-6,7,8,9-tetrahydro-1H-pyrazolo[3,4-b]quinolin-5(4H)-one] | > 25 |  | 
16 | CC1(C)CC(=O)C2=C(C1)Nc1n[nH]c(C(F)(F)F)c1[C@@H]2c1ccccc1C(F)(F)F (stereo in doubt) [Compound 72, 7,7-dimethyl-3-(trifluoromethyl)-4-(2-(trifluoromethyl)phenyl)-6,7,8,9-tetrahydro-2H-pyrazolo[3,4-b]quinolin-5(4H)-one] | 1.49 | 6.37 | 
17 | Cc1[nH]nc2c1C(c1cccc(F)c1)C1=C(CC(C)(C)CC1=O)N2 (centres unmarked) [Compound 11, 4-(3-fluorophenyl)-3,7,7-trimethyl-6,7,8,9-tetrahydro-1H-pyrazolo[3,4-b]quinolin-5(4H)-one] | > 25 |  | 
18 | Cc1[nH]nc2c1C(c1ccccn1)C1=C(CC(C)(C)CC1=O)N2 (centres unmarked) [Compound 36, 3,7,7-trimethyl-4-(pyridin-2-yl)-6,7,8,9-tetrahydro-1H-pyrazolo[3,4-b]quinolin-5(4H)-one] | > 25 |  | 
19 | Cc1[nH]nc2c1C(c1ccccc1F)C1=C(CC(C)(C)CC1=O)N2 (centres unmarked) [Compound 10, 4-(2-fluorophenyl)-3,7,7-trimethyl-6,7,8,9-tetrahydro-1H-pyrazolo[3,4-b]quinolin-5(4H)-one] | 12.7 |  | 

Row | SMILES | EC50 [1, 4] [µM] | pEC50 [2] | other results
20 | Cc1[nH]nc2c1C(c1ccc3c(c1)OCO3)C1=C(CC(C)(C)CC1=O)N2 (centres unmarked) [Compound 26, 4-(benzo[d][1,3]dioxol-5-yl)-3,7,7-trimethyl-6,7,8,9-tetrahydro-1H-pyrazolo[3,4-b]quinolin-5(4H)-one] | > 25 |  | 
21 | Cc1[nH]nc2c1C(c1cccc(C#N)c1)C1=C(CC(C)(C)CC1=O)N2 (centres unmarked) [Compound 33, 3-(3,7,7-trimethyl-5-oxo-4,5,6,7,8,9-hexahydro-2H-pyrazolo[3,4-b]quinolin-4-yl)benzonitrile] | 5.16 | 5.60 | pEC50 [3]: 4.92
22 | COc1ccccc1[C@H]1C2=C(CC(C)(C)CC2=O)Nc2n[nH]c(C)c21 [Compound 21, 4-(2-methoxyphenyl)-3,7,7-trimethyl-6,7,8,9-tetrahydro-1H-pyrazolo[3,4-b]quinolin-5(4H)-one] | > 25 | < 4.52 | 
23 | Cc1[nH]nc2c1C(c1ccc(F)cc1Cl)C1=C(CC(C)(C)CC1=O)N2 (centres unmarked) [Compound 35, 4-(2-chloro-4-fluorophenyl)-3,7,7-trimethyl-6,7,8,9-tetrahydro-1H-pyrazolo[3,4-b]quinolin-5(4H)-one] | > 25 |  | 
24 | CC1(C)CC(=O)C2=C(C1)Nc1n[nH]c(C(F)(F)F)c1[C@H]2c1ccccc1C(F)(F)F (stereo in doubt) [Compound 73, 7,7-dimethyl-3-(trifluoromethyl)-4-(2-(trifluoromethyl)phenyl)-6,7,8,9-tetrahydro-2H-pyrazolo[3,4-b]quinolin-5(4H)-one] | > 25 | 4.66 | 
25 | Cc1[nH]nc2c1C(c1ccccc1)(C(F)(F)F)C1=C(CC(C)(C)CC1=O)N2 (centres unmarked) [Compound 92, 1,6,6-trimethyl-9-phenyl-9-(trifluoromethyl)-5,6,7,9-tetrahydro-2H-pyrazolo[3,4-b]quinolin-8(4H)-one] |  | 4.69 | 
26 | Cc1[nH]nc2c1[C@@H](c1ccccc1C(F)(F)F)C1=C(CC(C)(C)CC1=O)N2 (stereo in doubt) [Compound 29, 3,7,7-trimethyl-4-(2-(trifluoromethyl)phenyl)-6,7,8,9-tetrahydro-2H-pyrazolo[3,4-b]quinolin-5(4H)-one] | > 25 | < 4.52 | pEC50 [3]: < 4.30
27 | Cc1[nH]nc2c1C(C)(c1ccccc1)C1=C(CC(C)(C)CC1=O)N2 (centres unmarked) [Compound 67, 3,4,7,7-tetramethyl-4-phenyl-6,7,8,9-tetrahydro-2H-pyrazolo[3,4-b]quinolin-5(4H)-one] | > 25 |  | 
28 | COc1ccccc1C1C2=C(CC(C)(C)CC2=O)Nc2n[nH]c(C)c21 (racemic) [Compound 20, 4-(2-methoxyphenyl)-3,7,7-trimethyl-6,7,8,9-tetrahydro-1H-pyrazolo[3,4-b]quinolin-5(4H)-one] | 17.9 | 5.04 | 
29 | CCC1(c2ccccc2)C2=C(CC(C)(C)CC2=O)Nc2n[nH]c(C)c21 (racemic) [Compound 89, 9-ethyl-1,6,6-trimethyl-9-phenyl-5,6,7,9-tetrahydro-2H-pyrazolo[3,4-b]quinolin-8(4H)-one] |  | 4.65 | 
30 | Cc1[nH]nc2c1[C@@H](c1ccccc1C#N)C1=C(CC(C)(C)CC1=O)N2 [Compound 32, 2-(3,7,7-trimethyl-5-oxo-4,5,6,7,8,9-hexahydro-2H-pyrazolo[3,4-b]quinolin-4-yl)benzonitrile] | 23.4 |  | 
31 | Cc1[nH]nc2c1C(c1ccc(C#N)cc1)C1=C(CC(C)(C)CC1=O)N2 (centres unmarked) [Compound 34, 4-(3,7,7-trimethyl-5-oxo-4,5,6,7,8,9-hexahydro-2H-pyrazolo[3,4-b]quinolin-4-yl)benzonitrile] | > 25 |  | 
32 | Cc1[nH]nc2c1C(c1ccc(C(F)(F)F)cc1)C1=C(CC(C)(C)CC1=O)N2 (centres unmarked) [Compound 31, 3,7,7-trimethyl-4-(4-(trifluoromethyl)phenyl)-6,7,8,9-tetrahydro-2H-pyrazolo[3,4-b]quinolin-5(4H)-one] | > 25 |  | pEC50 [3]: < 4.30
33 | COc1ccccc1C1C2=C(CC(C)(C)CC2=O)Nc2n[nH]c(C(F)(F)F)c21 (racemic) [Compound 53, 4-(2-methoxyphenyl)-7,7-dimethyl-3-(trifluoromethyl)-6,7,8,9-tetrahydro-2H-pyrazolo[3,4-b]quinolin-5(4H)-one] |  |  | EC50 [1, 5]: 16.9 µM; pEC50 [3]: 4.85
34 | COc1ccc(C2C3=C(CC(C)(C)CC3=O)Nc3n[nH]c(C)c32)cc1 (centres unmarked) [Compound 24, 4-(4-methoxyphenyl)-3,7,7-trimethyl-6,7,8,9-tetrahydro-1H-pyrazolo[3,4-b]quinolin-5(4H)-one] | > 25 |  | 
35 | Cc1[nH]nc2c1C(c1ccn[nH]1)C1=C(CC(C)(C)CC1=O)N2 (centres unmarked) [Compound 40, 3,7,7-trimethyl-4-(1H-pyrazol-5-yl)-6,7,8,9-tetrahydro-1H-pyrazolo[3,4-b]quinolin-5(4H)-one] | > 25 |  | 
36 | Cc1ccc(C2C3=C(CC(C)(C)CC3=O)Nc3n[nH]c(C)c32)cc1 (centres unmarked) [Compound 19, 3,7,7-trimethyl-4-(p-tolyl)-6,7,8,9-tetrahydro-1H-pyrazolo[3,4-b]quinolin-5(4H)-one] | > 25 |  | 
37 | Cc1[nH]nc2c1C(c1ccc(Cl)cc1)C1=C(CC(C)(C)CC1=O)N2 (centres unmarked) [Compound 15, 4-(4-chlorophenyl)-3,7,7-trimethyl-6,7,8,9-tetrahydro-1H-pyrazolo[3,4-b]quinolin-5(4H)-one] | > 25 |  | 
